The subject of assay [1] is Oscillatoria perornata. Nature of the assay: Rapid bioassay screening for selective algicides (LOEC, LCIC). The class given is cell-based. The following applies: rapid screening; for MIC: read-out: LCIC (lowest-complete-inhibition concentration), Oscillatoria perornata; for minimal effective concentration: read-out: LOEC (lowest-observed-effect concentration), Oscillatoria perornata.
From the text: (§1) These were screened in the laboratory by the method of Schrader et al. (K. K. Schrader, M. Q. de Regt, C. S. Tucker and S. O. Duke, A rapid bioassay for selective algicides. Weed Technol. (1997), vol. 11, pp. 767-774) for algicidal activity.
(§2) The anthraquinone derivatives were screened for selective toxicity towards Oscillatoria perornata, previously isolated from a Mississippi catfish pond, using the method of Schrader et al. (1997). The green alga Selenastrum capricornutum (obtained from the United States Environmental Protection Agency, Corvallis, Oreg.) was used as the representative green algal species in the bioassay since it is a common species found in southeastern United States catfish ponds. Absorbance readings were graphed, and graphs were used to determine the LOEC (lowest-observed-effect concentration) and the LCIC (lowest-complete-inhibition concentration) for each anthraquinone analog. In addition, a 96-hour 50% inhibition concentration (IC50) was determined for DNA1-19-1 and DNA2-59-1 by using the method described by Schrader et al. (1998b). Stock solutions of DNA1-19-1 and DNA2-59-1 were prepared so that final concentrations screened for 96-hour IC50 determinations were as follows: 1) 0, 0.01, 0.033, 0.1, 0.333, 1.0, 3.3, and 10.0 μM DNA1-19-1 for both O. perornata and S. capricornutum; 2) 0, 0.003, 0.01, 0.033, 0.1, 0.333, 1.0, and 3.333 μM DNA2-59-1 for O. perornata; and 3) 0, 0.1, 0.333, 1.0, 3.333, 10.0, 33.333, and 100.0 μM DNA2-59-1 for S. capricornutum. Estimation of the IC50 was determined by plotting 96-hour absorbance readings against logarithmic dilution values of the anthraquinone analogs. The screening results of the anthraquinone derivatives and commercially available analogs of anthraquinone are presented in Tables 1 and 2, respectively. The results in Table 1 reveal that DNA1-19-1 and DNA2-59-1 are the most promising analogs since these two compounds had the lowest LOEC and LCIC values for O. perornata (10 nM and 100 nM, respectively). Based upon IC50 results in Table 3, DNA2-59-1 appears to be more toxic and selective towards O. perornata than DNA1-19-1.
as §2, with “(A rapid bioassay for selective algicides. Weed Technol. (1997), vol. 11, pp. 767-774).” for “(1997).”, “(K. K. Schradar, M. Q. de Regt, P. D. Tidwell, C. S. Tucker and S. O. Duke, Selective growth inhibition of the musty-odor producing cyanobacterium Oscillatoria cf. chalybea by natural compounds. Bull. Environ. Contam. Toxicol. (1998a), vol.60, pp. 651-658).” for “(1998b).”, “The screening results of the anthraquinone derivatives and commercially available analogs of anthraquinone are presented in Tables 1 and 2, respectively. The results in Table 1 reveal that DNA1-19-1 and DNA2-59-1 are the most promising analogs since these two compounds had the lowest LOEC and LCIC values for O. perornata (10 nM and 100 nM, respectively). Based upon IC50 results in Table 3, DNA2-59-1 appears to be more toxic and selective towards O. perornata than DNA1-19-1.” left out

The subject of assay [2] is Selenastrum capricornutum. Described as above. The class given is cell-based. The following applies: rapid screening; for MIC / minimal effective concentration: Selenastrum capricornutum; for MIC: read-out: LCIC (lowest-complete-inhibition concentration), Selenastrum capricornutum; for minimal effective concentration: read-out: LOEC (lowest-observed-effect concentration), Selenastrum capricornutum.
From the text: as §1, §2
as §2, with “(A rapid bioassay for selective algicides. Weed Technol. (1997), vol. 11, pp. 767-774).” for “(1997).”, “(K. K. Schradar, M. Q. de Regt, P. D. Tidwell, C. S. Tucker and S. O. Duke, Selective growth inhibition of the musty-odor producing cyanobacterium Oscillatoria cf. chalybea by natural compounds. Bull. Environ. Contam. Toxicol. (1998a), vol.60, pp. 651-658).” for “(1998b).”, “The screening results of the anthraquinone derivatives and commercially available analogs of anthraquinone are presented in Tables 1 and 2, respectively. The results in Table 1 reveal that DNA1-19-1 and DNA2-59-1 are the most promising analogs since these two compounds had the lowest LOEC and LCIC values for O. perornata (10 nM and 100 nM, respectively). Based upon IC50 results in Table 3, DNA2-59-1 appears to be more toxic and selective towards O. perornata than DNA1-19-1.” left out

Here are results for 10 molecules from patent publication US6949250B2, “Selective algaecides for control of cyanochloronta” (The United States of America as represented by the …, priority 2002, dated 2005).

≈ marks a conversion by molar mass, not a printed value. Like-named read-outs stand apart in the source and are kept apart here.

On to `O=C1c2ccccc2C(=O)c2cc(CNC3CC3)ccc21.O=P(O)(O)O` [DNA3-35-1, 2-[Methylamino-N-(cyclopropyl)]-9,10-anthraquinone monophosphate], for which, in assay [1], the “LCIC (lowest-complete-inhibition concentration), Oscillatoria perornata” value is 1,000 nM and the “LOEC (lowest-observed-effect concentration), Oscillatoria perornata” value (“LOEC … Oscillatoria perornata” for short) is recorded as 1,000 nM. Moreover, in assay [2], the “LCIC (lowest-complete-inhibition concentration), Selenastrum capricornutum” value was 100,000 nM and the “LOEC (lowest-observed-effect concentration), Selenastrum capricornutum” value (from here on “LOEC … Selenastrum capricornutum”) was 10,000 nM.
Take `CC(C)N(Cc1ccc2c(c1)C(=O)c1ccccc1C2=O)C(C)C.O=P(O)(O)O` [DNA2-49-1, 2-[Methylamino-N,N-(di-1′-methylethyl)]-9,10-anthraquinone monophosphate]: in assay [1], the “LCIC (lowest-complete-inhibition concentration), Oscillatoria perornata” value is reported as 1,000 nM and the “LOEC … Oscillatoria perornata” value was 1,000 nM. Besides, in assay [2], the “LCIC (lowest-complete-inhibition concentration), Selenastrum capricornutum” value was determined as 1e+06 nM and the “LOEC … Selenastrum capricornutum” value is recorded as 100,000 nM.
Regarding `CCN(CC)Cc1ccc2c(c1)C(=O)c1ccccc1C2=O.O=P(O)(O)O` [DNA2-51-1, 2-[Methylamino-N,N-(diethyl)]-9,10-anthraquinone monophosphate], in assay [1], the MIC is 0.1 µM and the minimal effective concentration was 0.1 µM. Besides, in assay [2], the “LCIC (lowest-complete-inhibition concentration), Selenastrum capricornutum” value was 100,000 nM and the “LOEC … Selenastrum capricornutum” value is 10,000 nM.
As to `Nc1ccc2c(c1)C(=O)c1ccccc1C2=O` [2-aminoanthraquinone, reference compound], the MIC in assay [1] (Planktothrix perornata) and in assay [2] was over 100 µM throughout.
With `CCCC(C)NCc1ccc2c(c1)C(=O)c1ccccc1C2=O.O=P(O)(O)O` (centres unmarked) [DNA2-53-1, 2-[Methylamino-N-(1′-methylbutyl)]-9,10-anthraquinone monophosphate], in assay [1], the MIC came out at 0.1 µM and the minimal effective concentration worked out at 0.1 µM. In addition, in assay [2], the “LCIC (lowest-complete-inhibition concentration), Selenastrum capricornutum” value was 100,000 nM and the “LOEC … Selenastrum capricornutum” value is given as 100,000 nM.
On to `COCCOc1ccc2c(c1)C(=O)c1ccccc1C2=O` [DNA2-97-2, 2-(2-Methoxyethoxy)-9,10-anthraquinone], for which the MIC was 10 µM (≈ 2.82 µg/mL) in assay [1] (Planktothrix perornata) and over 100 µM in assay [2]. In addition, the minimal effective concentration was 10 µM in assay [1] (Planktothrix perornata) and over 100 µM in assay [2].
For the molecule `O=C1c2ccccc2C(=O)c2c(OCCOCCOCCO)cccc21` [DNA3-15-1, 1-[2-[2-(2-Hydroxyethoxy)ethoxy]ethoxy]-9,10-anthraquinone], in assay [1] (Planktothrix perornata), the MIC was 10 µM (≈ 3.56 µg/mL) and the minimal effective concentration worked out at 10 µM. In assay [2], the MIC is over 100 µM and the minimal effective concentration is 0.01 µM.
Consider `COCCOCCOc1cccc2c1C(=O)c1ccccc1C2=O` [DNA3-7-1, 1-[2-(2-Methoxyethoxy)ethoxy]-9,10-anthraquinone], for which, in assay [1] (Planktothrix perornata), the MIC was 100 µM (≈ 32.6 µg/mL) and the minimal effective concentration came to 10 µM. Besides, in assay [2], the MIC was over 100 µM and the minimal effective concentration is over 100 µM.
As to `COCCOCCOCCOCCOc1ccc2c(c1)C(=O)c1ccccc1C2=O` [DNA3-55-1, 2-[2-[2-[2-(2-Methoxyethoxy)ethoxy]ethoxy]ethoxy]-9,10-anthraquinone], the MIC in assay [1] (Planktothrix perornata) is 100 µM (≈ 41.4 µg/mL); in assay [2] it was over 100 µM. Also, the figures for the minimal effective concentration in assay [1] (Planktothrix perornata) and in assay [2] were 10 µM and over 100 µM, respectively.
Regarding `CC(C)NC(C)c1ccc2c(c1)C(=O)c1ccccc1C2=O` (centres unmarked) [DNA2-89-1, 2-[1′-Amino-N-(1′-methylethyl)ethyl]-9,10-anthraquinone 9,10-anthraquinone], in assay [1], the “LCIC (lowest-complete-inhibition concentration), Oscillatoria perornata” value was 1,000 nM and the “LOEC … Oscillatoria perornata” value is recorded as 1,000 nM. Also, in assay [2], the “LCIC (lowest-complete-inhibition concentration), Selenastrum capricornutum” value was 100,000 nM and the “LOEC … Selenastrum capricornutum” value is recorded as 100,000 nM.
